Data set [1] is described as follows: Thermal stability of Diels-Alder adducts in toluene-d8 (retro-Diels-Alder conversion by 1H NMR). The class given is physicochemical. The source says:
For example, FIGS. 7A and 7B illustrate that addition of the 3-phenoxy group to the furan moiety leads to a pronounced increase in the thermal stability of the Diels-Alder adduct of many embodiments. Not to be bound by any theory, this effect has been observed previously for cycloadducts derived from 3-alkoxy-furans, and it has been ascribed to a reduction in the energetic penalty for loss of furan aromaticity (as explained, for example in: Boutelle, R. C.; Northrop, B. H. Substituent Effects on the Reversibility of Furan-Maleimide Cycloadditions. J. Org. Chem. 2011, 76, 7994-8002; and Foster, R. W.; et al. Irreversible endo-Selective Diels-Alder Reactions of Substituted Alkoxyfurans: A General Synthesis of endo-Cantharimides. Chemistry 2015, 21, 6107-6114, the disclosures of which are incorporated herein by reference). Accordingly, FIG. 7A illustrates that, […] after 5 h, while the same conditions lead to approximately 46% reversion of the analogous Diels-Alder adduct (±)-216 without the 3-phenoxy substituent. […] Accordingly, in many embodiments, 3-phenoxy, or any similar aryloxy substituent at 3-position of the furan moiety enhances the thermal stability of such mechanophore platforms without any detriment to their mechanochemical activity.
In comparison, as described herein, heating the Diels-Alder adduct comprising a 3-OPh substituted furan moiety at 70° C. under the same conditions results in <2% retro-Diels-Alder conversion, while for the Diels-Alder adduct comprising neither substituent the conversion ˜46% under the same heating conditions.

The nature of data set [2]: Decomposition of model 2-furylcarbinol derivatives in solution at room temperature, followed by NMR and photoluminescence spectroscopy.
Excerpt: The generation of hydroxycoumarin 2 in the room temperature solution of furfuryl carbonate 1 in MeCN:MeOH (3:1) was also monitored over time using fluorescence spectroscopy (FIG. 3C).
Furthermore, FIG. 8C illustrates the kinetics of the decomposition of furfuryl carbamates comprising α-methyl, 3-phenoxy, and 5-position substituents according to many embodiments, such as exemplified by 21, and compares them to the furfuryl carbamates without the 3-phenoxy substitution, such as exemplified by furfuryl carbamate 22. More specifically, FIG. 8C provides data from experimental studies, wherein the decompositions of 21 and 22 to generate aminocoumarin 23 were monitored as a function of time using NMR and PL spectroscopy.
[3] abbreviates: toluene-d8, room temperature, after 132 days.

The structures appear in SMILES notation. Entries after “also recorded” stand apart in the source; their conditions may differ.

For the molecule `CC(O)[C@@]12C=C[C@@](COC(=O)C(C)(C)Br)(O1)[C@@H]1C(=O)N(CCOC(=O)C(C)(C)Br)C(=O)[C@@H]12` (mixture of isomers) [(±)-216], the retro-Diels-Alder conversion entry is listed as “approximately 46%” in data set [1] (toluene-d8, 70° C., after 5 h); “nearly quantitative” in data set [1] (toluene-d8, 70° C., after 21 h); “approximately 23%” in data set [1] (setting [3]). Moreover, the thermal stability result in data set [1] (toluene-d8, room temperature) is reported as “slow, but detectable, reversion”.
Take `CC(C)(Br)C(=O)OCCc1ccc(OC23C=CC(CO)(O2)C2C(=O)N(CCOC(=O)C(C)(C)Br)C(=O)C23)cc1` (racemic) [(±)-33, 4-((2-(2-((2-bromo-2-methylpropanoyl)oxy)ethyl)-7-(hydroxymethyl)-1,3-dioxo-1,2,3,3a,7,7a-hexahydro-4H-4,7-epoxyisoindol-4-yl)oxy)phenethyl 2-bromo-2-methylpropanoate]: the retro-Diels-Alder conversion result in data set [1] (toluene-d8 (7.7 mM), room temperature, nearly two months) is reported as “negligible; also recorded: no detectable products”; in data set [1] (toluene-d8, 70° C., after 21 h), about 35%.
The term half-life denotes the time in which the quantity being followed falls by half. Take `Cc1cc(=O)oc2cc(NC(=O)OC(C)c3oc(COC(=O)C(C)(C)C)cc3Oc3ccccc3)ccc12` (centres unmarked) [Compound 21, (5-(1-(((4-methyl-2-oxo-2H-chromen-7-yl)carbamoyl)oxy)ethyl)-4-phenoxyfuran-2-yl)methyl pivalate]: the “time to full conversion to products” value in data set [2] (3:1 MeCN/MeOH, room temperature) is listed as “approximately 5 h”. Moreover, the half-life at 19 μM in data set [2] (MeCN-d3/MeOH solution, half-life for decomposition t1/2, 3:1 MeCN-d3/MeOH, room temperature, NMR, first-order fit) turned out to be 0.567 h.
As for `Cc1cc(=O)oc2cc(OC(=O)OC(C)c3ccc(COC(=O)C(C)(C)Br)o3)ccc12` (centres unmarked) [Compound 1, (5-(1-((((4-methyl-2-oxo-2H-chromen-7-yl)oxy)carbonyl)oxy)ethyl)furan-2-yl)methyl 2-bromo-2-methylpropanoate], the stability in solvent entry is on record as “relatively stable” in data set [2] (DCM, chloroform, and hexanes); “decomposes quickly” in data set [2] (acidic and protic solvents); “relatively stable” in data set [2] (chloroform and acetonitrile). The half-life is 1.32 h in data set [2] (acetonitrile-d3/methanol solution, reaction half-life t1/2 of decomposition, 3:1 (v/v) acetonitrile-d3/methanol, room temperature, from NMR measurements) and about 0.133 h in data set [2] (water/acetonitrile-d3 solution, half-life of decomposition, water/acetonitrile mixture (water 25% by volume in acetonitrile-d3), room temperature, NMR).
For `CC(O)C12OC(COC(=O)C(C)(C)Br)(C=C1Oc1ccccc1)C1C(=O)N(CCOC(=O)C(C)(C)Br)C(=O)C12` (racemic) [(±)-29, (2-(2-((2-bromo-2-methylpropanoyl)oxy)ethyl)-7-(1-hydroxyethyl)-1,3-dioxo-6-phenoxy-1,2,3,3a,7,7a-hexahydro-4H-4,7-epoxyisoindol-4-yl)methyl 2-bromo-2-methylpropanoate], the retro-Diels-Alder conversion in data set [1] (toluene-d8, 70° C., after 5 h) is given as under 2%; in data set [1] (toluene-d8, 70° C., after 21 h), under 7%; in data set [1] (setting [3]), “no reaction is observed”. The thermal stability entry in data set [1] (toluene-d8, room temperature) is “stable indefinitely”.
As for `Cc1cc(=O)oc2cc(NC(=O)OC(C)c3ccc(COC(=O)C(C)(C)C)o3)ccc12` (centres unmarked) [Compound 22, (5-(1-(((4-methyl-2-oxo-2H-chromen-7-yl)carbamoyl)oxy)ethyl)furan-2-yl)methyl pivalate], in data set [2] (19.6 mM in MeCN-d3:MeOH (3:1), room temperature, after 134 days, 1H NMR), the conversion entry is given as “approximately 40%”. In data set [2] (3:1 MeCN/MeOH, room temperature, same conditions as 21), the decomposition reactivity entry was “completely unreactive”.
`Cc1cc(=O)oc2cc(NC(=O)OCc3ccc(Oc4ccc(CCOC(=O)C(C)(C)Br)cc4)o3)ccc12` [Compound 35, 4-((5-((((4-methyl-2-oxo-2H-chromen-7-yl)carbamoyl)oxy)methyl)furan-2-yl)oxy)phenethyl 2-bromo-2-methylpropanoate] gave a half-life at 21 mM in data set [2] (acetonitrile-d3/methanol solution, half-life for consumption t1/2, 3:1 acetonitrile-d3/methanol, room temperature, NMR, 21 mM) of 9.3 h. In addition, the “yield of aminocoumarin released” value in data set [2] (acetonitrile/methanol (3:1 v/v), room temperature) is “nearly quantitative”. In data set [2] (acetonitrile/methanol solution, half-life of consumption and aminocoumarin generation, acetonitrile/methanol (3:1 v/v), room temperature, 1H NMR and PL), this molecule had a half-life of about 10 h.
In the case of `Cc1cc(=O)oc2cc(OC(=O)OCc3ccc(COC(=O)C(C)(C)Br)o3)ccc12` [Compound S2, (5-(((((4-methyl-2-oxo-2H-chromen-7-yl)oxy)carbonyl)oxy)methyl)furan-2-yl)methyl 2-bromo-2-methylpropanoate], the “estimated half-lives for decomposition” value in data set [2] (room temperature) is recorded as “several weeks”.

The values above are taken from patent publication US11584752B2, “Method for controlled release using mechanical force” (California Institute of Technology, priority 2020, dated 2023).
